The record followed here is ChEMBL document CHEMBL1146065, “Structure-based optimization of azole antifungal agents by CoMFA, CoMSIA, and molecular docking” (2006).

Holding throughout (format): functional
For one experiment, the system named is Candida albicans. Nature of the experiment: Antifungal activity against Candida albicans.
The next experiment relates to Candida tropicalis. Nature of the experiment: Antifungal activity against Candida tropicalis.
In the next experiment the test system is Candida parapsilosis. Briefly: Antifungal activity against Candida parapsilosis. Particulars: Lodderomyces parapsilosis.
The next experiment concerns Cryptococcus neoformans. Nature of the experiment: Antifungal activity against Cryptococcus neoformans.
The next experiment relates to Fonsecaea pedrosoi. Briefly: Antifungal activity against Fonsecaea pedrosoi.
The test system of another experiment is Trichophyton rubrum. Briefly: Antifungal activity against Trichophyton rubrum.
The next experiment has as its system Aspergillus fumigatus. Nature of the experiment: Antifungal activity against Aspergillus fumigatus.
The test system of another experiment is Sporothrix schenckii. Briefly: Antifungal activity against Sporothrix schenckii.

Molecules are shown by their SMILES. Values after ≈ are worked out from the molar mass of the structure shown.

One may read the MIC80 as the lowest concentration that inhibits either 80% of growth or 80% of the strains tested, depending on the study. In the experiment with Candida albicans, `CC(C)(C)c1ccc(CN2CCN(CC(O)(Cn3cncn3)c3ccc(F)cc3F)CC2)cc1` (stereo unspecified) came in with an MIC80 of 0.034 µM. That is a double-digit nanomolar value.

For the compound `OC(CN1CCN(Cc2ccc(I)cc2)CC1)(Cn1cncn1)c1ccc(F)cc1F` (stereo unspecified), the MIC80 in the experiment with Candida albicans is 0.116 µM.

For `OC(CN1CCN(c2ccncc2)CC1)(Cn1cncn1)c1ccc(F)cc1F` (stereo unspecified), the MIC80 against Candida albicans was determined as 2.5 µM.

For `OC(CN1CCN(c2ccccn2)CC1)(Cn1cncn1)c1ccc(F)cc1F` (stereo unspecified), the MIC80 in the experiment on Candida albicans was 0.156 µM.

On to `Cc1cccc(CN2CCN(CC(O)(Cn3cncn3)c3ccc(F)cc3F)CC2)c1` (stereo unspecified), for which the MIC80 with Candida albicans is 0.292 µM.

`O=[N+]([O-])c1ccccc1CN1CCN(CC(O)(Cn2cncn2)c2ccc(F)cc2F)CC1` (stereo unspecified) displayed an MIC80 against Candida albicans of 34.9 µM.

`N#Cc1ccc(CN2CCN(CC(O)(Cn3cncn3)c3ccc(F)cc3F)CC2)cc1` (stereo unspecified): the MIC80 in the experiment with Candida albicans is 0.285 µM.

With `CCc1ccc(CN2CCN(CC(O)(Cn3cncn3)c3ccc(F)cc3F)CC2)cc1` (stereo unspecified), the MIC80 in the experiment with Candida albicans turned out to be 0.566 µM. This MIC80 lies about 2-fold higher than the previous one.

Compound `COc1ccccc1C(=O)N1CCN(CC(O)(Cn2cncn2)c2ccc(F)cc2F)CC1` (stereo unspecified) had an MIC80 in the experiment with Candida albicans of 17.5 µM.

On to `CN(Cc1ccc(-n2cnn(CC(=O)c3ccccc3)c2=O)cc1)CC(O)(Cn1cncn1)c1ccc(F)cc1F` (stereo unspecified), for which the MIC80 in the experiment with Candida tropicalis was 0.0625 µg/mL (≈ 0.112 µM); with Candida parapsilosis, 0.008 µg/mL (≈ 0.0143 µM); with Candida albicans, 0.016 µg/mL; against Cryptococcus neoformans, 8 µg/mL (≈ 14.3 µM); in the experiment with Fonsecaea pedrosoi, 1 µg/mL (≈ 1.79 µM); against Trichophyton rubrum it was 8 µg/mL (≈ 14.3 µM). Besides, the MIC80 in the experiment with Aspergillus fumigatus and with Sporothrix schenckii was 64 µg/mL (≈ 114 µM) in each case.

With `Cc1cccc(C(=O)N2CCN(CC(O)(Cn3cncn3)c3ccc(F)cc3F)CC2)c1` (stereo unspecified), the MIC80 against Candida albicans amounted to 2.27 µM.

`O=C(c1ccc(Cl)cc1)N1CCN(CC(O)(Cn2cncn2)c2ccc(F)cc2F)CC1` (stereo unspecified) yielded an MIC80 with Candida albicans of 0.541 µM.

The compound `O=[N+]([O-])c1ccc(Cl)c(CN2CCN(CC(O)(Cn3cncn3)c3ccc(F)cc3F)CC2)c1` (stereo unspecified) gave an MIC80 against Candida albicans of 0.254 µM. This MIC80 lies about 2.1-fold lower than the previous one.

As to `Cc1ccc(Cn2ncn(-c3ccc(CN(C)CC(O)(Cn4cncn4)c4ccc(F)cc4F)cc3)c2=O)cc1` (stereo unspecified), the MIC80 in the experiment with Candida tropicalis was 0.5 µg/mL (≈ 0.916 µM); in the experiment on Candida parapsilosis, 0.125 µg/mL (≈ 0.229 µM); with Candida albicans, 0.002 µg/mL; in the experiment on Cryptococcus neoformans, 1 µg/mL (≈ 1.83 µM); in the experiment on Fonsecaea pedrosoi, 0.25 µg/mL (≈ 0.458 µM); in the experiment with Trichophyton rubrum, 1 µg/mL (≈ 1.83 µM). For the same compound, the MIC80 against Aspergillus fumigatus was determined as 32 µg/mL (≈ 58.7 µM); against Sporothrix schenckii, 64 µg/mL (≈ 117 µM).

For the compound `OC(CN1CCN(c2cc(C(F)(F)F)cc(Cl)n2)CC1)(Cn1cncn1)c1ccc(F)cc1F` (stereo unspecified), the MIC80 with Candida albicans was determined as 0.124 µM.

With `CN(Cc1ccc(-n2cnn(CC(=O)c3ccc(Br)cc3)c2=O)cc1)CC(O)(Cn1cncn1)c1ccc(F)cc1F` (stereo unspecified), the MIC80 against Candida tropicalis is 0.0625 µg/mL (≈ 0.0979 µM); in the experiment on Candida parapsilosis it was 1 µg/mL (≈ 1.57 µM); in the experiment on Candida albicans, 0.002 µg/mL; against Cryptococcus neoformans, 0.25 µg/mL (≈ 0.392 µM); in the experiment on Fonsecaea pedrosoi it was 0.0625 µg/mL (≈ 0.0979 µM); in the experiment with Trichophyton rubrum it was 0.25 µg/mL (≈ 0.392 µM). Moreover, the values for the MIC80 against Aspergillus fumigatus and against Sporothrix schenckii were 16 µg/mL (≈ 25.1 µM) and 64 µg/mL (≈ 100 µM), respectively.

`OC(CN1CCN(Cc2ccc(Br)cc2F)CC1)(Cn1cncn1)c1ccc(F)cc1F` (stereo unspecified) gave an MIC80 in the experiment with Candida albicans of 0.0612 µM.

Turning to `CN(Cc1cccc(C(F)(F)F)c1)CC(O)(Cn1cncn1)c1ccc(F)cc1F` (stereo unspecified), the MIC80 with Candida tropicalis was found to be 0.25 µg/mL (≈ 0.586 µM); against Candida parapsilosis it was 4 µg/mL (≈ 9.38 µM); against Candida albicans, 0.032 µg/mL; against Cryptococcus neoformans, 0.5 µg/mL (≈ 1.17 µM); against Fonsecaea pedrosoi, 1 µg/mL (≈ 2.35 µM); in the experiment with Trichophyton rubrum, 8 µg/mL (≈ 18.8 µM). Moreover, the MIC80 in the experiment on Aspergillus fumigatus and with Sporothrix schenckii was 64 µg/mL (≈ 150 µM) each time.

The compound `OC(CN1CCN(Cc2ccc(Cl)cc2)CC1)(Cn1cncn1)c1ccc(F)cc1F` (stereo unspecified) came in with an MIC80 against Candida albicans of 0.0357 µM. This lies in the double-digit nanomolar range.

In the experiment on Candida albicans, `OC(CN1CCN(Cc2ccccc2F)CC1)(Cn1cncn1)c1ccc(F)cc1F` (stereo unspecified) came in with an MIC80 of 4.64 µM.

Consider `Cc1ccc(CN2CCN(CC(O)(Cn3cncn3)c3ccc(F)cc3F)CC2)cc1` (stereo unspecified), for which the MIC80 against Candida albicans stood at 2.34 µM.

With `OC(CN1CCN(Cc2ccc(Br)cc2)CC1)(Cn1cncn1)c1ccc(F)cc1F` (stereo unspecified), in the experiment with Candida albicans, the MIC80 is 0.254 µM.

Regarding `O=Cc1ccc(N2CCN(CC(O)(Cn3cncn3)c3ccc(F)cc3F)CC2)cc1` (stereo unspecified), the MIC80 in the experiment with Candida albicans was found to be 0.035 µM.

Turning to `CC(C)(C)c1ccc(N2CCN(CC(O)(Cn3cncn3)c3ccc(F)cc3F)CC2)cc1` (stereo unspecified), the MIC80 in the experiment with Candida albicans is 0.137 µM.

`CN(Cc1ccc(-n2cnn(CC(=O)c3ccc(F)cc3F)c2=O)cc1)CC(O)(Cn1cncn1)c1ccc(F)cc1F` (stereo unspecified): the MIC80 came to 0.0625 µg/mL (≈ 0.105 µM) with Candida tropicalis; 0.016 µg/mL (≈ 0.0269 µM) in the experiment with Candida parapsilosis; 0.008 µg/mL in the experiment with Candida albicans; 8 µg/mL (≈ 13.4 µM) against Cryptococcus neoformans; 2 µg/mL (≈ 3.36 µM) against Fonsecaea pedrosoi; 4 µg/mL (≈ 6.72 µM) with Trichophyton rubrum. For the same compound, the MIC80 in the experiment with Aspergillus fumigatus and against Sporothrix schenckii was 64 µg/mL (≈ 107 µM) in each case.

`Nc1ccc(C(=O)N2CCN(CC(O)(Cn3cncn3)c3ccc(F)cc3F)CC2)cc1` (stereo unspecified) came in with an MIC80 against Candida albicans of 36.2 µM.
